Laboratory results as given in paper PMC11603275, “Synthesis and Antimicrobial Evaluation of New 1,2,4-Triazolo[1,5-a]pyrimidine-Based Derivatives as Dual Inhibitors of Bacterial DNA Gyrase and DHFR” (ACS Omega, 2024).
In brackets after ≈: the same amount, converted by molar mass. Like-named read-outs stand apart in the source and are kept apart here.

Legend:
E. coli [1] = assay: Minimum bactericidal concentration (MBC) assay; assay type: cell-based, Escherichia coli
Excerpt: (§1) The MBC differs from the MIC. […] Unlike the MBC, which leads to mortality, the MIC hinders bacterial growth without causing death.[41] The common expression for MBC is MBC50, signifying the antibiotic concentration that eliminates 50% of the initial bacterial population.[42]

E. coli DNA gyrase = target: T1, E. coli DNA gyrase (Escherichia coli, UniProt P0AES6); assay: DNA gyrase inhibitory (supercoiling) assay; assay type: biochemical
T1 construct: purchased Inspiralis
Protocol: (§5) IC50 values were determined using seven different inhibitor concentrations and then calculated using the GraphPad Prism 6.0 software.
All the final compounds were tested for E. coli DNA gyrase inhibitory activity in a supercoiling assay. Activities were determined on streptavidin-coated 96-well microtiter plates from Thermo scientific Pierce. […] After washing off the unbound oligonucleotide, the enzyme test was performed. […] After that, the TF buffer (50 mM NaOAc with pH 5.0, 50 mM NaCl and 50 mM MgCl2) was added to terminate the enzymatic reaction. After additional incubation for 30 min at rt, during which biotin-oligonucleotide-plasmid triplex was formed, the unbound plasmid was washed off using TF buffer and SybrGOLD in T10 buffer (10 mM Tris HCl with pH 8.0 and 1 mM EDTA) was added. […] Initial screening was done at 100 or 10 μM concentration of inhibitors. […] GraphPad Prism software was used to calculate the IC50 values. The result is given as the average value of three independent measurements.

S. aureus [2] = assay: MIC assay, 2-fold serial dilution in 96-well microtiter plate; assay type: cell-based, Staphylococcus aureus (ATCC 12600); conditions: Staphylococcus aureus, read-out: MIC
Protocol: (§2) The outcomes of this in vitro assay test align with the results of the antimicrobial sensitivity test.
(§3) Appendix A (Supplementary File) provides experimental details.
(§4) In 96-well microtiter plates and […] of fresh bacterial culture of a single McFarland unit overnight, a double serial dilution of each compound […] in sterile standard saline were prepared to every single source well. […] The plates were incubated at 37 °C overnight. As an indicator of bacterial growth, […] of p-iodonitrotetrazolium violet (INT) was added to each well and incubated at 37 °C for 30 min. […] The colorless tetrazolidium salt acts as an electron accepter and is reduced to a red colored formazan product by biological activity organisms. Where bacterial growth was inhibited, the solution in the well remained clear after incubation with INT.

B. subtilis [3] = assay: as above; assay type: cell-based, Bacillus subtilis (ATCC 6051); conditions: for MIC: Bacillus subtilis, read-out: MIC
Protocol: as §2, §3, §4

B. subtilis [4] = assay: Minimum bactericidal concentration (MBC) assay; assay type: cell-based, Bacillus subtilis
Excerpt: as §1

B. subtilis [5] = assay: Modified disk diffusion, inhibition zone; conditions: B. subtilis (G+)
E. coli [6] = assay: MIC assay, 2-fold serial dilution in 96-well microtiter plate; assay type: cell-based, Escherichia coli (ATCC 11775); conditions: Escherichia coli, read-out: MIC
Protocol: as §2, §3, §4

C. albicans [7] = assay: Antifungal MIC assay, 2-fold serial dilution; assay type: cell-based, Candida albicans; conditions: Candida albicans, read-out: MIC
S. aureus [8] = assay: Minimum bactericidal concentration (MBC) assay; assay type: cell-based, Staphylococcus aureus; conditions: Staphylococcus aureus, read-out: MBC
Excerpt: as §1

E. coli [9] = assay: Modified disk diffusion, inhibition zone; conditions: E. coli (G-)
DHFR E. coli = target: T2, DHFR E. coli (Escherichia coli, UniProt P0ABQ4); assay: DHFR inhibitory assay; assay type: biochemical
T2 construct: purchased Inspiralis
Protocol: as §5

P. aeruginosa [10] = assay: Modified disk diffusion, inhibition zone; conditions: P. aeruginosa (G-)
A. flavus [11] = assay: Modified disk diffusion, inhibition zone; conditions: A. flavus (fungi)
P. aeruginosa [12] = assay: Minimum bactericidal concentration (MBC) assay; assay type: cell-based, Pseudomonas aeuroginosa
Excerpt: as §1

C. albicans [13] = assay: Modified disk diffusion, inhibition zone; conditions: C. albicans (fungi)
S. aureus [14] = assay: Modified disk diffusion, inhibition zone; conditions: S. aureus (G+)
A. flavus [15] = assay: Antifungal MIC assay, 2-fold serial dilution; assay type: cell-based, Aspergillus flavus; conditions: Aspergillus flavus, read-out: MIC
P. aeruginosa [16] = assay: MIC assay, 2-fold serial dilution in 96-well microtiter plate; assay type: cell-based, Pseudomonas aeuroginosa (ATCC 10145); conditions: Pseudomonas aeruginosa, read-out: MIC
Protocol: as §2, §3, §4

[17] = test system: Gram-positive and Gram-negative bacteria (B. subtilis, S. aureus, E. coli, P. aeruginosa); assay: Disk diffusion, inhibition zones summarised over the tested bacterial strains; conditions: over the four tested bacterial strains
[18] = Escherichia coli, read-out: MBC
[19] = Bacillus subtilis, read-out: MBC
[20] = Pseudomonas aeruginosa, read-out: MBC

T2 sequence (P0ABQ4 whole entry): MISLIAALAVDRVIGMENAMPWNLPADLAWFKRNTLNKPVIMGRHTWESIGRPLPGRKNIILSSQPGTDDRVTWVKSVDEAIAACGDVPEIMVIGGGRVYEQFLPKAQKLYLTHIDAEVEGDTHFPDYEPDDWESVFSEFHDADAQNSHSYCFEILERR

SMILES	MBC (E. coli [1]; [18])	IC50 (E. coli DNA gyrase)	MIC (S. aureus [2])	MIC (B. subtilis [3])	MBC (B. subtilis [4]; [19])	Inhibition Zone (IZ) Diameter (B. subtilis [5])	MIC (E. coli [6])	MIC (C. albicans [7])	MBC (S. aureus [8])	Inhibition Zone (IZ) Diameter (E. coli [9])	IC50 (DHFR E. coli)	Inhibition Zone (IZ) Diameter (P. aeruginosa [10])	Inhibition Zone (IZ) Diameter (A. flavus [11])	MBC (P. aeruginosa [12]; [20])	Inhibition Zone (IZ) Diameter (C. albicans [13])	Inhibition Zone (IZ) Diameter (S. aureus [14])	MIC (A. flavus [15])	MIC (P. aeruginosa [16])	melting point	Inhibition Zone (IZ) Diameter [17]	also measured
COc1ccc(-c2cc(-c3ccccc3)nc3nc(-c4ccccc4)nn23)cc1 [Compound 9d, 7-(4-Methoxyphenyl)-2,5-diphenyl-1,2,4-triazolo[1,5-a]pyrimidine]	0.102 ± 0.007 µM (≈ 0.0386 µg/mL)	217 ± 13 nM	0.039 ± 0.002 µM (≈ 0.0148 µg/mL)	0.038 ± 0.002 µM (≈ 0.0144 µg/mL)	0.064 ± 0.003 µM (≈ 0.0242 µg/mL)	35 mm/mL	0.073 ± 0.005 µM (≈ 0.0276 µg/mL)	26.3 ± 1 µM (≈ 9.95 µg/mL)	0.071 ± 0.004 µM (≈ 0.0269 µg/mL)	33 mm/mL	5900 ± 200 nM	34 mm/mL	27 mm/mL	0.109 ± 0.007 µM (≈ 0.0412 µg/mL)	30 mm	35	21.5 ± 1 µM (≈ 8.14 µg/mL)	0.075 ± 0.005 µM (≈ 0.0284 µg/mL)	–	–	–
Cc1ccc(-c2cc(-c3ccc(Cl)cc3)nc3nc(-c4ccccc4)nn23)cc1 [Compound 9g, 5-(4-Chlorophenyl)-2-phenyl-7-p-tolyl-1,2,4-triazolo[1,5-a]pyrimidine]	–	–	–	–	–	19 mm/mL	–	–	–	20 mm/mL	–	18 mm/mL	9.0 mm/mL	–	11 mm	20	–	–	248 to 250 °C	18–20 mm	–
Cc1ccc(-c2cc(-c3ccc(C)cc3)n3nc(-c4ccccc4)nc3n2)cc1 [Compound 9k, 2-Phenyl-5,7-di-p-tolyl-1,2,4-triazolo[1,5-a]pyrimidine]	–	–	–	–	–	32 mm/mL	–	–	–	30 mm/mL	–	30 mm/mL	22 mm/mL	–	25 mm	32	–	–	224 to 226 °C	30–32 mm	–
COc1ccc(-c2cc(-c3ccccc3)n3nc(-c4ccccc4)nc3n2)cc1 [Compound 9m, 5-(4-Methoxyphenyl)-2,7-diphenyl-1,2,4-triazolo[1,5-a]pyrimidine]	–	–	–	–	–	31 mm/mL	–	–	–	30 mm/mL	–	30 mm/mL	20 mm/mL	–	23 mm	32	–	–	222 to 224 °C	approximately 30 mm	–
COc1ccc(-c2cc(-c3ccc(Cl)cc3)n3nc(-c4ccccc4)nc3n2)cc1 [Compound 9n, 7-(4-Chlorophenyl)-5-(4-methoxyphenyl)-2-phenyl-1,2,4-triazolo[1,5-a]pyrimidine]	0.093 µM (≈ 0.0384 µg/mL)	190 ± 11 nM	0.033 ± 0.002 µM (≈ 0.0136 µg/mL)	0.029 ± 0.002 µM (≈ 0.012 µg/mL)	0.049 µM (≈ 0.0202 µg/mL)	40 mm/mL	0.065 ± 0.004 µM (≈ 0.0268 µg/mL)	21.9 ± 1 µM (≈ 9.04 µg/mL)	0.065 ± 0.002 µM (≈ 0.0268 µg/mL)	40 mm/mL	4600 ± 200 nM	40 mm/mL	32 mm/mL	0.094 µM (≈ 0.0388 µg/mL)	36 mm	41	18.5 ± 1 µM (≈ 7.64 µg/mL)	0.064 ± 0.005 µM (≈ 0.0264 µg/mL)	–	approximately 40 mm	MBC (E. coli [1]): 0.093 ± 0.006 µM (≈ 0.0384 µg/mL); times less effective than ciprofloxacin (MIC) (B. subtilis [3]): 3; MBC (B. subtilis [4]): 0.049 ± 0.002 µM (≈ 0.0202 µg/mL); folds less potent than ciprofloxacin as a bactericidal agent (MBC) (B. subtilis [4]): 2.6; MBC (P. aeruginosa [12]): 0.094 ± 0.006 µM (≈ 0.0388 µg/mL)
